The source of these data is patent US10604514B2, “6-(5-membered heteroaryl)isoquinolin-3-yl carboxamides and preparation and use thereof” (Samumed, LLC, priority 2017, dated 2020).

Assay [1] has as its system SW480 colon carcinoma cells. The assay is described as follows: Cell viability assay (CellTiter-Glo) in SW480 cells.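 As to all read-outs here: SW480 cells stably carrying an Sp5-luciferase TCF/LEF reporter, luminescent ATP signal as viability measure, DMSO-treated cells as control.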 Particulars: for EC50: cell viability, SW480 cells, four days, CellTiter-Glo; for inhibition at 10 µM: SW480, read-out: percent inhibition at 10 μM. The assay is classed as cell-based, human.
In a further assay the target is DYRK1A kinase (Homo sapiens (Human), UniProt Q13627). Nature of the assay: DYRK1A kinase assay (Ser/Thr 18 peptide Z-lyte, FRET).
Assay [2] deals with Wnt activity (Sp5-Luc reporter in SW480 colon carcinoma cells). The assay is described as follows: Wnt activity screening assay (Sp5-Luc reporter gene assay). Conditions: for EC50: Sp5-Luc reporter, SW480 cells, 36 to 48 hours; for inhibition at 10 µM: SW480, read-out: percent inhibition at 10 μM. The assay is classed as cell-based, human. The procedure, abridged: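 SW480 cells stably carrying an Sp5 promoter (eight TCF/LEF sites)-firefly luciferase reporter were plated in DMEM with 1% FBS and treated with a 10-point, 1:3 dilution series from 10 μM (0.1% DMSO) for 36 to 48 h at 37° C. Luminescence was normalized to DMSO controls, and EC50 came from four-parameter nonlinear regression.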

Assay [3] has as its system Tau phosphorylation at Ser396 (pSer396), SH-SY5Y cells. The assay is described as follows: Tau phosphorylation at Ser396 (pSer396) in SH-SY5Y cells, ELISA/western blot.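 Also: cell lysates probed for reduced Tau pSer396 via ELISA (colorimetric) or western blot (chemiluminescence), both with one shared pSer396 antibody, EC50 for lowering phosphorylation.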 The assay is classed as cell-based, human. Particulars: SH-SY5Y cells, overnight (16-18 h), read-out: pSer396 Tau EC50.
Assay [4] concerns LL29 cells (primary human fibroblasts derived from IPF patients), α-smooth muscle actin. The assay is described as follows: Inhibition of fibrotic process: αSMA in TGF-β1-treated primary human fibroblasts from IPF patients (LL29 cells). The assay is classed as cell-based. Particulars: for EC50: % αSMA-positive LL29 cells, TGF-β1 20 ng/mL, 4 days; for inhibition at 10 µM: read-out: percent inhibition at 10 μM. The procedure, abridged:
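IPF-patient lung fibroblasts (LL29) were stimulated with TGF-β1 (20 ng/mL) in 1% FBS medium with compound (11-point 1:2 series, 0.1% DMSO) for 4 days at 37 °C. Fixed cells were immunostained for αSMA and imaged, excluding SYTOX-positive dead cells. The % αSMA-positive cells was normalized to TGF-β1/DMSO control wells.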

The subject of a further assay is IL-6. The assay is described as follows: IL-6 inhibition in LPS-stimulated human peripheral blood mononuclear cells (HTRF). The assay is classed as cell-based. Particulars: for EC50: IL-6, LPS-stimulated huPBMCs, HTRF; for inhibition at 10 µM: read-out: percent value in parentheses below EC50 >10. In outline:
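Fresh human PBMCs (5000 cells/well, 1% FBS RPMI) preincubated with compound (10-point 1:3 series from 10 μM, 0.25% DMSO) 2 h at 37 °C, then stimulated with 50 ng/mL E. coli LPS for 22 h. IL-6 by HTRF 665/620 ratio; DMSO-normalized, EC50 from 4-parameter fit.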

In a further assay the target is GSK3β kinase (Homo sapiens (Human), UniProt P49841). Nature of the assay: GSK3β kinase assay (Ser/Thr 09 peptide Z-lyte, FRET).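 Also: Coumarin/fluorescein emission ratio converted to percent phosphorylation against unphosphorylated (0%) and phosphorylated (100%) controls, 1 h compound incubation at room temperature, 11-point threefold dilutions from 10 µM, run in duplicate.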 The class given is biochemical. Conditions: method text calls the value IC50.
The mark [5] stands for this setting: DYRK1A kinase, method text calls the value IC50.

The structures appear in SMILES notation. Like-named read-outs stand apart in the source and are kept apart here. Bounds are passed on as bounds.

Sequence of GSK3β kinase (P49841 whole entry): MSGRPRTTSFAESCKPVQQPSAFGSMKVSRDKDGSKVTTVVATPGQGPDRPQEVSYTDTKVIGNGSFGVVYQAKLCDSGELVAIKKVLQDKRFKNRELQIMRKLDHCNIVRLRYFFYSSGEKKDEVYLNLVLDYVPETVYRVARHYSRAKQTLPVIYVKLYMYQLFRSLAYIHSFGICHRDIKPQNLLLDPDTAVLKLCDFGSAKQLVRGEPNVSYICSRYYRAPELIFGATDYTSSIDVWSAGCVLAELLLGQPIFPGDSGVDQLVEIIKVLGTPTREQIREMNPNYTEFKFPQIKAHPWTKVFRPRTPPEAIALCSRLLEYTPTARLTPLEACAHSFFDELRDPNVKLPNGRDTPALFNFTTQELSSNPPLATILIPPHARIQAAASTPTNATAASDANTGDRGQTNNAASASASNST

For the compound `Cc1ncc(-c2ccc3cnc(NC(=O)C4CCC(N5CC5CF)CC4)cc3c2)o1` (stereo not drawn) [Compound 154, trans-4-(2-(fluoromethyl)aziridin-1-yl)-N-(6-(2-methyloxazol-5-yl)isoquinolin-3-yl)cyclohexane-1-carboxamide], the concentration for a half-maximal effect (EC50) in assay [1] (Homo sapiens, 96 h) is 761 nM; on DYRK1A kinase it was 5 nM; in assay [2] (Homo sapiens), 2760 nM; in assay [3] (Homo sapiens), 580 nM; in assay [4] (Homo sapiens, Fibroblast, 96 h), 240 nM; in the assay with IL-6 (Homo sapiens, PBMC) it was 1130 nM. At GSK3β kinase, a half-maximal effect (EC50) was put at 124 nM.

As for `Cc1nnc(-c2ccc3cnc(NC(=O)[C@H]4CC[C@H](N)CC4)cc3c2)s1` [Compound 21, trans-4-Amino-N-(6-(5-methyl-1,3,4-thiadiazol-2-yl)isoquinolin-3-yl) cyclohexane-1-carboxamide], the EC50 in assay [1] (Homo sapiens, 96 h) came to 1060 nM; at DYRK1A kinase (setting [5]), 6 nM; in assay [2] (Homo sapiens), 657 nM; in assay [3] (Homo sapiens), 566 nM; in assay [4] (Homo sapiens, Fibroblast, 96 h) it was 340 nM; in the assay on IL-6 (Homo sapiens, PBMC), 9370 nM. Further, the midpoint of the response on GSK3β kinase, the EC50, lay at 35 nM.

On to `Cc1ncc(-c2ccc3cnc(NC(=O)C4CCN(CC(C)(F)F)CC4)cc3c2)o1` [Compound 20, 1-(2,2-Difluoropropyl)-N-(6-(2-methyloxazol-5-yl)isoquinolin-3-yl) piperidine-4-carboxamide], for which the EC50 in assay [1] is 3070 nM; on DYRK1A kinase (setting [5]) it was 5 nM; in assay [2], 2640 nM; in assay [3], 524 nM; in assay [4] it was 480 nM; in the assay on IL-6 it was greater than 10000 nM. Further, the EC50 at GSK3β kinase is 41 nM. For the same compound, in the assay on IL-6, the “percent inhibition of IL-6 at 10 µM” value is listed as “(13.4%)”.

On to `[2H]c1c([2H])c(C(=O)Nc2cc3cc(-c4cnc(C)n4C)ccc3cn2)c([2H])c([2H])c1OC` [Compound 166, N-(6-(1,2-Dimethyl-1H-imidazol-5-yl)isoquinolin-3-yl)-4-methoxybenzamide-2,3,5,6-d4], for which the EC50 in assay [1] (Homo sapiens, 96 h) was 671 nM; at DYRK1A kinase, 9 nM; in assay [2] (Homo sapiens) it was 525 nM; in assay [3] (Homo sapiens), greater than 10000 nM; in assay [4] (Homo sapiens, Fibroblast, 96 h) it was 1880 nM; in the assay on IL-6 (Homo sapiens, PBMC), 3550 nM. The compound further showed an EC50 on GSK3β kinase of 6380 nM.

Regarding `[2H]c1c([2H])c(C(=O)Nc2cc3cc(-c4cnc(C)n4C)ccc3cn2)c([2H])c([2H])c1OC([2H])([2H])[2H]` [Compound 165, N-(6-(1,2-Dimethyl-1H-imidazol-5-yl)isoquinolin-3-yl)-4-(methoxy-d3) benzamide-2,3,5,6-d4], the EC50 in assay [1] (Homo sapiens, 96 h) was 752 nM; on DYRK1A kinase, 6 nM; in assay [2] (Homo sapiens), 498 nM; in assay [3] (Homo sapiens) it was greater than 10000 nM; in assay [4] (Homo sapiens, Fibroblast, 96 h), 998 nM; in the assay with IL-6 (Homo sapiens, PBMC), 2850 nM. On GSK3β kinase, this compound gave an EC50 of 3740 nM.

For `Cc1ncc(-c2ccc3cnc(NC(=O)N4CCn5ccnc5C4)cc3c2)o1` [Compound 126, N-(6-(2-Methyloxazol-5-yl)isoquinolin-3-yl)-5,6-dihydroimidazo[1,2-a]pyrazine-7(8H)-carboxamide], the EC50 in assay [1] (Homo sapiens, 96 h) amounted to 488 nM; at DYRK1A kinase (setting [5]), 5 nM; in assay [2] (Homo sapiens), 1180 nM; in assay [3] (Homo sapiens), 197 nM; in assay [4] (Homo sapiens, Fibroblast, 96 h), 286 nM; in the assay with IL-6 (Homo sapiens, PBMC), 363 nM. This compound also registered an EC50 at GSK3β kinase of 24 nM.

`Cc1nnc(-c2ccc3cnc(NC(=O)N4CC[C@H](N)[C@@H](F)C4)cc3c2)s1` [Compound 33, (3S,4S)-4-amino-3-fluoro-N-(6-(5-methyl-1,3,4-thiadiazol-2-yl)isoquinolin-3-yl)piperidine-1-carboxamide]: the EC50 was 4630 nM in assay [1] (Homo sapiens, 96 h); 9 nM at DYRK1A kinase (setting [5]); 3500 nM in assay [2] (Homo sapiens); 321 nM in assay [3] (Homo sapiens); greater than 10000 nM in assay [4] (Homo sapiens, Fibroblast, 96 h); 9320 nM with IL-6 (Homo sapiens, PBMC). Also, the EC50 at GSK3β kinase came to 23 nM. For the same compound, in assay [4] (Homo sapiens, Fibroblast), the inhibition at 10 µM was determined as 49.9%.

As to `[2H]C([2H])([2H])c1ccc(C(=O)Nc2cc3cc(-c4cnc(C)n4C)ccc3cn2)cc1` [Compound 161, N-(6-(1,2-Dimethyl-1H-imidazol-5-yl)isoquinolin-3-yl)-4-(methyl-d3) benzamide], the EC50 in assay [1] (Homo sapiens, 96 h) is 660 nM; at DYRK1A kinase, 10 nM; in assay [2] (Homo sapiens), 736 nM; in assay [3] (Homo sapiens) it was greater than 10000 nM; in assay [4] (Homo sapiens, Fibroblast, 96 h), 3000 nM; in the assay with IL-6 (Homo sapiens, PBMC), greater than 10000 nM. This compound also showed an EC50 at GSK3β kinase of 5670 nM. For the same compound, the inhibition at 10 µM in the assay on IL-6 (Homo sapiens, PBMC) turned out to be 42.2%.

In the case of `COCCN[C@H]1CC[C@H](C(=O)Nc2cc3cc(-c4cnn(C)c4)cc(F)c3cn2)CC1` [Compound 105, trans-N-(8-Fluoro-6-(1-methyl-1H-pyrazol-4-yl)isoquinolin-3-yl)-4-((2-methoxyethyl)amino)cyclohexane-1-carboxamide], the EC50 is greater than 10000 nM in assay [1] (Homo sapiens, 96 h); 34 nM on DYRK1A kinase (setting [5]); greater than 10000 nM in assay [2] (Homo sapiens); 2200 nM in assay [3] (Homo sapiens); 812 nM in assay [4] (Homo sapiens, Fibroblast, 96 h); 1570 nM in the assay on IL-6 (Homo sapiens, PBMC). In addition, the 50% effective concentration (EC50) at GSK3β kinase came out at 550 nM. Besides, the values for the inhibition at 10 µM in assay [1] (Homo sapiens) and in assay [2] (Homo sapiens) were 16.9% and 15.8%, respectively.

Take `Cc1nnc(-c2ccc3cnc(NC(=O)N4CCN(C)CC4)cc3c2)s1` [Compound 62, 4-Methyl-N-(6-(5-methyl-1,3,4-thiadiazol-2-yl)isoquinolin-3-yl)piperazine-1-carboxamide]: the EC50 was 3640 nM in assay [1] (Homo sapiens, 96 h); 7 nM at DYRK1A kinase (setting [5]); 2640 nM in assay [2] (Homo sapiens); 1200 nM in assay [3] (Homo sapiens); 1230 nM in assay [4] (Homo sapiens, Fibroblast, 96 h); greater than 10000 nM with IL-6 (Homo sapiens, PBMC). The compound also displayed an EC50 on GSK3β kinase of 68 nM. Further, the inhibition at 10 µM with IL-6 (Homo sapiens, PBMC) was determined as 8.5%.

As for `Cn1cc(-c2ccc3cnc(NC(=O)CN4CCOCC4)cc3c2)nn1` [Compound 11, N-(6-(1-Methyl-1H-1,2,3-triazol-4-yl)isoquinolin-3-yl)-2-morpholinoacetamide], the EC50 is greater than 10000 nM in assay [1] (Homo sapiens, 96 h); 10 nM at DYRK1A kinase (setting [5]); 2810 nM in assay [2] (Homo sapiens); 190 nM in assay [3] (Homo sapiens); greater than 10000 nM in assay [4] (Homo sapiens, Fibroblast, 96 h); greater than 10000 nM with IL-6 (Homo sapiens, PBMC). The compound also displayed an EC50 on GSK3β kinase of 10 nM. Also, the inhibition at 10 µM in assay [1] (Homo sapiens) came to 46.3%; in assay [4] (Homo sapiens, Fibroblast) it was 3.8%; in the assay with IL-6 (Homo sapiens, PBMC), 38.4%.

For the compound `Cc1nnc(-c2ccc3cnc(NC(=O)N[C@H]4CCN(C)C[C@@H]4F)cc3c2)s1` [Compound 71, 1-((3S,4S)-3-Fluoro-1-methylpiperidin-4-yl)-3-(6-(5-methyl-1,3,4-thiadiazol-2-yl)isoquinolin-3-yl)urea], the EC50 in assay [1] (Homo sapiens, 96 h) is greater than 10000 nM; on DYRK1A kinase (setting [5]), 6 nM; in assay [2] (Homo sapiens), greater than 10000 nM; in assay [3] (Homo sapiens) it was 250 nM; in assay [4] (Homo sapiens, Fibroblast, 96 h) it was 4660 nM; in the assay on IL-6 (Homo sapiens, PBMC) it was 9370 nM. Besides, the EC50 at GSK3β kinase is 14 nM. Besides, the inhibition at 10 µM in assay [1] (Homo sapiens) amounted to 46.7%; in assay [2] (Homo sapiens) it was 45.6%.

For the compound `Cc1ncc(-c2ccc3cnc(NC(=O)[C@H]4CC[C@H](NC(CF)CF)CC4)cc3c2)o1` [Compound 124, trans-4-((1,3-difluoropropan-2-yl)amino)-N-(6-(2-methyloxazol-5-yl)isoquinolin-3-yl)cyclohexane-1-carboxamide], the EC50 in assay [1] (Homo sapiens, 96 h) was 1020 nM; on DYRK1A kinase (setting [5]), 35 nM; in assay [2] (Homo sapiens), 3480 nM; in assay [3] (Homo sapiens), 612 nM; in assay [4] (Homo sapiens, Fibroblast, 96 h), 451 nM; in the assay with IL-6 (Homo sapiens, PBMC), 1880 nM. The compound further had a half-maximal effective concentration (EC50) at GSK3β kinase of 217 nM.

In the case of `Cn1cc(-c2cc(F)c3cnc(NC(=O)[C@H]4CC[C@@H](N5CCOCC5)CC4)cc3c2)cn1` [Compound 97, cis-N-(8-Fluoro-6-(1-methyl-1H-pyrazol-4-yl)isoquinolin-3-yl)-4-morpholinocyclohexane-1-carboxamide], the EC50 in assay [1] (Homo sapiens, 96 h) came to 806 nM; at DYRK1A kinase (setting [5]) it was 14 nM; in assay [2] (Homo sapiens) it was 1470 nM; in assay [3] (Homo sapiens) it was 184 nM; in assay [4] (Homo sapiens, Fibroblast, 96 h), 200 nM; in the assay with IL-6 (Homo sapiens, PBMC) it was 365 nM. Also, a half-maximal response on GSK3β kinase (EC50) required 20 nM.
